Experimental data from patent US20100261706A1, “SUBSTITUTED TETRACYCLIC 1H-INDENO [1,2-B]PYRIDINE-2(5H)-ONE ANALOGS THEREOF AND USES THEREOF” (INOTEK PHARMACEUTICALS CORPORATION, priority 2008, published 2010).
Structures can show the parent of a compound that is named as a salt.

Tested on: diabetic rats exhibiting contrast-induced nephropathy
Assay: Contrast-induced nephropathy (CIN) model in streptozotocin-diabetic rats, contrast agent iomeprol
Type: in vivo, Male Wistar rats
Experimental: Effect of Tetracyclic 1H-indeno[1,2-b]pyridine-2(5H)-one analogs on the prophylaxis of contrast induced nephropathy
Male Wistar rats (150-200 g; Harlan Nossanr) were housed in a controlled environment and provided with standard rodent chow and water.
After 12 h of fasting, the animals received a single 60 mg/kg intravenous (i.v.) injection of streptozotocin (Sigma, St. Louis, Mo.) in 10 mM sodium citrate buffer, pH 4.5 (see figure showing CIN model). Control non-diabetic animals were fasted and received citrate buffer alone. After 24 h, animals with blood glucose levels greater than 250 mg/dl were considered diabetic. All experiments were performed 10 days following the induction of diabetes. The diabetic state was evaluated daily by determination of the blood glucose levels. Upon the induction of the diabetic state the animals were presenting with a major risk factor pre-disposing the animals to CIN after the administration of contrast media.
10 days following the induction of diabetes the rats were anesthetized with 90 mg/kg ketamine i.m. and 10 mg/kg xylazine i.m. and were treated with the contrast agent iomeprol (10 mL/kg injected via the lateral tail vein) or with 0.9% normal saline. The contrast agent used was the low osmolar non-ionic monomer iomeprol (lomeron, 400 mgI mL−1; Bracco SpA, Milan, Italy) with an osmolality of 726±34 mosmol/kg H2O.
Upon completion of surgical procedures, the animals were randomly allocated to different groups.
At the indicated time point blood samples were collected via the lateral tail vein into S1/3 tubes containing serum gel. The samples were centrifuged (6000 r.p.m. for 3 min) to separate plasma. All plasma samples were analyzed for biochemical parameters within 24 hours after collection. Plasma urea, plasma and urine concentrations of creatinine were measured as indicators of impaired glomerular function. Plasma concentrations of NGAL (neutrophil gelatinase associated lipocalin) levels and urine αGST (alpha glutathione S-transferase)and NGAL levels were evaluated.
At postmortem, a […] section of kidney was removed and placed in formalin and processed through to wax. […] sections were cut and stained with hematoxylin and eosin. Histologic assessment of outer medulla damage was examined by an experienced morphologist, who was not aware of the sample identity. The criteria for injury/necrosis were the following: 0=normal histology; 1=minor edema, minor cell swelling; 2=haemorrhage, moderate edema, moderate cells vacuolization and swelling; 3=moderate haemorrhage, moderate edema, moderate cells vacuolization, swelling and chromatin alteration; 4=severe edema, severe cells vacuolization, swelling and chromatin alteration, presence of necrosis spot; 5=severe edema, severe cells vacuolization, swelling and chromatin alteration, severe necrosis.

O=c1[nH]c2c(c3c1CCCC3)Cc1c(CN3CC[C@H](F)C3)cccc1-2 [Example 17, (S)-10-((3-fluoropyrrolidin-1-yl)methyl)-3,4,6,11-tetrahydro-1H-indeno[1,2-c]isoquinolin-5(2H)-one mesylate]
kidney histological scores (outer medulla damage score 0-5, FIG. 4): reduced | level of plasma creatinine (relative to contrast agent alone, FIG. 1): reduces | level of plasma NGAL (relative to contrast agent alone, FIG. 2): reduces | level of urine NGAL (relative to contrast agent alone, FIG. 3): reduces | level of urine GST (relative to contrast agent alone, FIG. 5): reduces
